Experimental data published in patent US9249104B2, “Pyrazole indanyl carboxamides” (BAYER CROPSCIENCE AG, priority 2012, dated 2016).

Assays:
Puccinia recondita = experiment: In vivo preventive test on Puccinia recondita (brown rust on wheat); conditions: 500 ppm, wheat plants sprayed 24 h before contamination, graded 12 days after contamination
Procedure: Wheat plants (“Scipion” variety), sown in starter cups on a 50/50 peat soil-pozzolana substrate and grown at 22° C., are treated at the 1-leaf stage (10 cm height) by spraying with the active ingredient prepared as described above. Plants, used as controls, are treated with the mixture of acetone/tween/DMSO/water not containing the active material. After 24 hours, the plants are contaminated by spraying the leaves with an aqueous suspension of Puccinia recondita spores (100 000 spores per ml). The spores are collected from an infected plant and are suspended in water to containing 2.5 ml/l of Tween 80 at 10%. […] Grading (% of efficacy) is carried out 12 days after the contamination, in comparison with the control plants.

Septoria tritici = experiment: In vivo preventive test on Septoria tritici (leaf spot on wheat); conditions: 500 ppm, wheat plants sprayed 24 h before contamination, graded 24 days after contamination
Procedure: Wheat plants (“Scipion” variety), sown in starter cups on a 50/50 peat soil-pozzolana substrate and grown at 22° C., are treated at the 1-leaf stage (10 cm height) by spraying with the active ingredient prepared as described above. Plants, used as controls, are treated with the mixture of acetone/tween/DMSO/water not containing the active material. After 24 hours, the plants are contaminated by spraying the leaves with an aqueous suspension of cryopreserved Septoria tritici spores (500 000 spores per ml). The contaminated wheat plants are incubated for 72 hours at 18° C. and at 100% relative humidity, and then for 21 days at 90% relative humidity. Grading (% of efficacy) is carried out 24 days after the contamination, in comparison with the control plants.

Uromyces appendiculatus = experiment: In vivo preventive test on Uromyces appendiculatus (bean rust); conditions: preventive, bean plants, dose of 500 ppm, grading 11 days after contamination
Procedure: Bean plants (“Saxa” variety), sown in starter cups on a 50/50 peat soil-pozzolana substrate and grown at 24° C., are treated at the 2-leaf stage (9 cm height) by spraying with the active ingredient prepared as described above. Plants, used as controls, are treated with the mixture of acetone/tween/DMSO/water not containing the active material. After 24 hours, the plants are contaminated by spraying the leaves with an aqueous suspension of Uromyces appendiculatus spores (150 000 spores per ml). The spores are collected from infected plants and are suspended in water containing 2.5 ml/1 of Tween 80 at 10%. […] Grading (% of efficacy) is carried out 11 days after the contamination, in comparison with the control plants.

[1] = tested on: Fusarium nivale (var. majus); experiment: In vivo Fusarium nivale (var. majus) test (wheat)/preventive; conditions: 500 ppm, wheat plants, preventive, evaluated 5 days after inoculation
Procedure: • Solvent: 49 parts by weight of N,N-dimethylacetamide • Emulsifier: 1 part by weight of alkylaryl polyglycol ether To produce a suitable preparation of active compound, 1 part by weight of active compound or active compound combination is mixed with the stated amounts of solvent and emulsifier, and the concentrate is diluted with water to the desired concentration. To test for preventive activity, young plants are sprayed with the preparation of active compound or active compound combination at the stated rate of application. After the spray coating has been dried, the plants are slightly injured by using a sandblast and afterwards they are sprayed with a conidia suspension of Fusarium nivale (var. majus). The plants are placed in the greenhouse under a translucent incubation cabinet at a temperature of approximately 10° C. and a relative atmospheric humidity of approximately 100%.

Alternaria brassicae = experiment: In vivo preventive test on Alternaria brassicae (leaf spot on radish); conditions: 500 ppm, radish plants sprayed 24 h before contamination, graded 6 days after contamination
Procedure: Radish plants (“Pernod Clair” variety), sown in starter cups on a 50/50 peat soil-pozzolana substrate and grown at 17° C., are treated at the cotyledon stage by spraying with the active ingredient prepared as described above. Plants, used as controls, are treated with the mixture of acetone/tween/DMSO/water not containing the active material. After 24 hours, the plants are contaminated by spraying the cotyledons with an aqueous suspension of Alternaria brassicae spores (50 000 spores per ml). The spores are collected from a 15-day-old culture. The contaminated radish plants are incubated at 20° C. and at 100% relative humidity. Grading (% of efficacy) is carried out 6 days after the contamination, in comparison with the control plants.

Botrytis cinerea = experiment: In vivo preventive test on Botrytis cinerea (grey mould); conditions: 500 ppm, gherkin plants sprayed 24 h before contamination, graded 4 to 5 days after contamination
Procedure: Gherkin plants (“Vert petit de Paris” variety), sown in starter cups on a 50/50 peat soil-pozzolana substrate and grown at 24° C., are treated at the Z11 cotyledon stage by spraying with the active ingredient prepared as described above. Plants, used as controls, are treated with the mixture of acetone/tween/DMSO/water not containing the active material. After 24 hours, the plants are contaminated by spraying the cotyledons with an aqueous suspension of cryopreserved Botrytis cinerea spores (50 000 spores per ml). The spores are suspended in a nutrient solution composed of 10 g/L of PDB, 50 g/L of D-Fructose, 2 g/L of NH4NO3 and 1 g/L of KH2PO4. The contaminated gherkin plants are incubated at 17° C. and at 90% relative humidity.

Pyrenophora teres = experiment: In vivo preventive test on Pyrenophora teres (net blotch on barley); conditions: graded 14 days after contamination; for Eff. %: 500 ppm, barley plants sprayed 24 h before contamination; for Efficacy: 100 ppm, barley plants, comparison with prior-art compound
Procedure: Barley plants (“Plaisant” variety), sown in starter cups on a 50/50 peat soil-pozzolana substrate and grown at 22° C., are treated at the 1-leaf stage (10 cm height) by spraying with the active ingredient prepared as described above. Plants, used as controls, are treated with the mixture of acetone/tween/DMSO/water not containing the active material. After 24 hours, the plants are contaminated by spraying the leaves with an aqueous suspension of Pyrenophora teres spores (12 000 spores per ml). The spores are collected from a 12-day-old culture. […] Grading (% of efficacy) is carried out 14 days after the contamination, in comparison with the control plants.

Sphaerotheca fuliginea = experiment: In vivo preventive test on Sphaerotheca fuliginea (powdery mildew on cucurbits); conditions: 500 ppm, gherkin plants sprayed 24 h before contamination, graded 12 days after contamination
Procedure: Gherkin plants (“Vert petit de Paris” variety), sown in starter cups on a 50/50 peat soil-pozzolana substrate and grown at 24° C., are treated at the Z11 cotyledon stage by spraying with the active ingredient prepared as described above. Plants, used as controls, are treated with the mixture of acetone/tween/DMSO/water not containing the active material. After 24 hours, the plants are contaminated by spraying the cotyledons with an aqueous suspension of Sphaerotheca fuliginea spores (100 000 spores per ml). The spores are collected from infected plants. […] Grading (% of efficacy) is carried out 12 days after the contamination, in comparison with the control plants.

Phytophthora infestans = type: in vivo; conditions: 500 ppm, tomato plants sprayed 24 h before contamination, graded 5 days after contamination
[2] = logP by HPLC on reversed phase columns (EEC directive 79/831 Annex V.A8); type: physicochemical; conditions: method [a]: LC-MS at pH 2.7, 0.1% formic acid in water / acetonitrile; compounds of formula (I), Table 1
Phakopsora pachyrhizi = experiment: In vivo Phakopsora test (soybeans)/preventive; conditions: 10 ppm, soybean plants, preventive, evaluated 7 days after inoculation
Procedure: To produce a suitable preparation of active compound, 1 part by weight of active compound is mixed with the stated amounts of solvent and emulsifier, and the concentrate is diluted with water to the desired concentration. To test for preventive activity, young plants are sprayed with the preparation of active compound at the stated rate of application. After the spray coating has dried on, the plants are inoculated with an aqueous spore suspension of the causal agent of soybean rust (Phakopsora pachyrhizi) and stay for 24 h without light in an incubation cabinet at approximately 24° C. and a relative atmospheric humidity of 95%. The plants remain in the incubation cabinet at approximately 24° C. and a relative atmospheric humidity of approximately 80% and a day/night interval of 12 h.

Pyricularia oryzae = type: in vivo; conditions: 500 ppm, rice plants sprayed 24 h before contamination, graded 6 days after contamination

Row | SMILES | Eff. % (Puccinia recondita) | Eff. % (Septoria tritici) | Eff. % (Uromyces appendiculatus) | Eff. % [1] | Eff. % (Alternaria brassicae) | Eff. % (Botrytis cinerea) | Eff. % (Pyrenophora teres) | Eff. % (Sphaerotheca fuliginea) | Eff. % (Phytophthora infestans) | logP [2] | Eff. % (Phakopsora pachyrhizi) | Efficacy (Pyrenophora teres) | Eff. % (Pyricularia oryzae)
1 | CC(C)OC1Cc2cccc(NC(=O)c3cn(C)nc3C(F)F)c2C1 (centres unmarked) [Example 2] | 100% | 90% | 100% | 75% |  |  |  |  |  |  |  |  | 
2 | CC(C)C1Cc2cccc(NC(=O)c3cn(C)nc3C(F)F)c2C1 (centres unmarked) [Example 3] | 94% | 96% | 100% |  | 92% | 85% | 97% | 100% |  |  |  |  | 
3 | CC1c2cccc(NC(=O)c3cn(C)nc3C(F)F)c2CC1(C)C (centres unmarked) [Example 5] | 100% | 91% |  |  | 71% | 88% |  | 98% | 89% |  |  |  | 
4 | CC1Cc2c(NC(=O)c3cn(C)nc3C(F)F)cccc2C1(C)C (centres unmarked) [Example 6] | 100% | 95% | 98% |  |  | 95% |  | 100% |  | 3.55[a] | 96% |  | 
5 | Cc1nn(C)c(F)c1C(=O)Nc1cccc2c1CC(C)C2(C)C (centres unmarked) [Example 8] | 100% |  | 100% |  | 79% |  |  |  |  | 3.52[a] |  | 83% | 83%
6 | CC1c2c(NC(=O)c3cn(C)nc3C(F)F)cccc2C(C)(C)C1C (centres unmarked) [Example 9] | 100% | 90% | 100% |  | 94% | 100% | 97% | 100% |  |  | 84% |  | 
7 | Cc1nn(C)c(C)c1C(=O)Nc1cccc2c1CC(C)(C)C2C (centres unmarked) [Example 13] | 100% |  | 100% |  | 93% |  | 75% |  |  | 3.13[a] |  |  | 83%
8 | Cc1nn(C)c(C)c1C(=O)Nc1cccc2c1C(C)C(C)C2(C)C (centres unmarked) [Example 16] | 98% |  | 100% |  |  | 100% |  |  |  | 3.15[a] |  |  | 
9 | CC1Cc2c(NC(=O)c3cnn(C)c3C(F)(F)F)cccc2C1(C)C (centres unmarked) [Example 17] | 98% |  | 100% |  |  | 94% |  |  |  | 3.73[a] |  |  | 
10 | CCC1Cc2cccc(NC(=O)c3cn(C)nc3C(F)F)c2C1 (centres unmarked) [Example 27] | 100% | 100% | 100% |  | 79% |  | 97% | 100% |  | 3.35[a] |  |  | 
11 | CC1Cc2c(NC(=S)c3cn(C)nc3C(F)F)cccc2C1(C)C (centres unmarked) [Example 28] |  | 83% | 100% |  |  |  |  | 100% |  | 3.85[a] |  |  | 93%
12 | Cc1nn(C)c(F)c1C(=O)Nc1cccc2c1C(C)C(C)C2(C)C (centres unmarked) [Example 33] | 98% | 97% | 100% |  | 92% | 100% | 97% | 100% |  | 3.52[a] |  | at least 80% | 
13 | CCC1Cc2c(NC(=O)c3c(C)nn(C)c3F)cccc2C1(C)C (centres unmarked) [Example 37] | 100% | 71% | 100% |  | 90% |  | 83% | 100% |  | 3.99[a] |  |  | 
